The values that follow come from ChEMBL document CHEMBL4190194, “Dudawalamides A-D, Antiparasitic Cyclic Depsipeptides from the Marine Cyanobacterium Moorea producens” (J Nat Prod, 2017).

Molecules are shown by their SMILES. Numbered stars: 1 amine (or outer) side, 2 acyl side, 3 side chain; on linkers, the order of the positions; unused ones are H or OH. Bridge positions count the residues as written; N and C are the ends. Square brackets hold non-standard residues; d marks the D form. Peptide text beside a SMILES is read from it. ξ: configuration not given here. X1 = C#CCCC[C@H](O[*:2])C(C)(C)C(=O)[*:1]; Hmp(2R,3S) = CC[C@H](C)[C@@H](O)C(=O)O; NMeF = CN[C@@H](Cc1ccccc1)C(=O)O; ξNMeF = CNC(Cc1ccccc1)C(=O)O; NMeV = CN[C@H](C(=O)O)C(C)C; Hiv = CC(C)[C@H](O)C(=O)O; ξNMeV = CNC(C(=O)O)C(C)C; ξP = O=C(O)C1CCCN1 A value given as a limit tells only on which side of the number the result lay.

Data set [1] relates to Leishmania donovani. Nature of the data set: Antileishmanial activity against Leishmania donovani WR2801 axenic amastigotes after 6 days by XTT assay. The class given is functional, organism-based. Particulars: WR2801, 144 h. On the technique in general: Tetrazolium assays rely on reduction of a dye to a coloured formazan, in cell work by metabolically active cells.
The subject of data set [2] is Plasmodium falciparum. Description: Antimalarial activity against chloroquine-resistant Plasmodium falciparum W2 infected in human type A positive erythrocytes by [3H]-hypoxanthine incorporation assay. The class given is functional, organism-based.
Data set [3] deals with Trypanosoma cruzi. Description: Antitrypanosomal activity against transgenic beta-galactosidase-expressing Trypanosoma cruzi Tulahuen clone C4 ATCC PRA33 assessed as growth inhibition at 10 ug/ml after 4 days relative to control. The class given is functional. As to conditions: Tulahuen clone C4 ATCC PRA33, 96 h, read-out: GI.
The test system of data set [4] is NCI-H460. Description: Cytotoxicity against human H460 cells at 30 uM after 48 hrs by MTT assay. As to conditions: nci-h460, 48 h. The class given is cell-based.

For orientation: IC50 means the point on the concentration scale where inhibition reaches its midpoint. A higher IC50 goes with lower potency. For `C#CCCC[C@H]1OC(=O)CNC(=O)[C@@H](Cc2ccccc2)N(C)C(=O)[C@@H]2CCCN2C(=O)[C@H]([C@@H](C)CC)N(C)C(=O)[C@H](C)NC(=O)[C@H](C)OC(=O)C1(C)C`, the IC50 in data set [1] is above 10 µM; in data set [2] it was 3.6 µM. For the same molecule, the inhibition of growth at 10 µg/mL in data set [3] is 12%. Further, the Activity result in data set [4] was “Non-Toxic”.
Regarding `C#CCCC[C@@H]1OC(=O)[C@H](C)NC(=O)[C@H](Cc2ccc(OC)cc2)N(C)C(=O)[C@@H]2CCCN2C(=O)[C@H](Cc2ccccc2)N(C)C(=O)[C@H](C(C)C)NC(=O)C1(C)C`, the figures for the IC50 in data set [1] and in data set [2] were above 10 µM and 8 µM, respectively. Besides, the inhibition of growth at 10 µg/mL in data set [3] worked out at 7%. Moreover, the Activity entry in data set [4] is listed as “Non-Toxic”.
On the same counts, the results for `C#CCCC[C@@H]1OC(=O)CNC(=O)[C@H](Cc2ccccc2)N(C)C(=O)[C@@H]2CCCN2C(=O)[C@@H]([C@@H](C)CC)OC(=O)[C@H](C(C)C)N(C)C(=O)[C@H](C(C)C)NC(=O)C1(C)C` (V[NMeV][Hmp(2R,3S)]P[NMeF]G; linker N-C via X1) are 2.6 µM, 3.5 µM, 60% and “Non-Toxic”.
In the case of `C#CCCC[C@@H]1OC(=O)CNC(=O)C(Cc2ccccc2)N(C)C(=O)C2CCCN2C(=O)[C@H](C(C)C)OC(=O)C(C(C)C)N(C)C(=O)[C@H](C(C)C)NC(=O)C1(C)C` (some centres undefined) (V[ξNMeV][Hiv][ξP][ξNMeF]G; linker N-C via X1), the IC50 in data set [2] worked out at 10 µM. The Activity result in data set [4] is given as “Non-Toxic”.
